Test results reported in ChEMBL document CHEMBL1201862, “PubChem BioAssay data set” (2004).
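Results reflect a 48-hour exposure of cells in 96-well plates to compound at five concentrations. GI50: concentration for 50% inhibition of growth.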 Calls of active or inactive are those of the source. Cut-off read from the data, not from the text of the source: active = GI50 up to about 1.1 µM and inactive = higher.

Columns and labels:
Experiment in all cases: NCI tumour cell line growth inhibition, 48 h
COLO 205 = tested on: COLO 205
SK-MEL-28 = tested on: SK-MEL-28
NCI-H460 = tested on: NCI-H460
M14 = tested on: M14
OVCAR-5 = tested on: OVCAR-5
HOP-92 = tested on: HOP-92
SW-620 = tested on: SW-620
HOP-62 = tested on: HOP-62
HL-60 = tested on: HL-60
UO-31 = tested on: UO-31
TK-10 = tested on: TK-10
LOX IMVI = tested on: LOX IMVI
MOLT-4 = tested on: MOLT-4
NCI-H522 = tested on: NCI-H522
SR = tested on: SR
UACC-62 = tested on: UACC-62
ACHN = tested on: ACHN
NCI/ADR-RES = tested on: NCI/ADR-RES
DU-145 = tested on: DU-145

Measured: GI50

CC1OC(n2ccc3ccc([N+](=O)[O-])cc32)C(O)C(O)C1O (stereo not drawn)
inactive: COLO 205 > 100 µM | SK-MEL-28 > 100 µM | NCI-H460 > 100 µM | M14 > 100 µM | OVCAR-5 > 100 µM | HOP-92 > 100 µM | SW-620 > 100 µM | HOP-62 > 100 µM | HL-60 > 100 µM | UO-31 > 100 µM | TK-10 > 100 µM | LOX IMVI > 100 µM | MOLT-4 > 100 µM | NCI-H522 > 100 µM | SR > 100 µM | UACC-62 > 100 µM | ACHN > 100 µM

O=C(NN1C(=O)CS(=O)(=O)C1c1cccc(F)c1)c1ccncc1 (stereo not drawn)
inactive: COLO 205 > 100 µM | SK-MEL-28 > 100 µM | NCI-H460 > 100 µM | M14 > 100 µM | OVCAR-5 > 100 µM | HOP-92 > 100 µM | SW-620 > 100 µM | HOP-62 > 100 µM | HL-60 > 100 µM | TK-10 > 100 µM | LOX IMVI > 100 µM | MOLT-4 > 100 µM | NCI-H522 > 100 µM | SR > 100 µM | ACHN > 100 µM

CCC1OC2C(CC=C(C)C)=C3OC(C)(O)C(C)(CC)C(=O)C3=C3OC(=O)C=C1C32 (stereo not drawn)
inactive: NCI/ADR-RES 27.8 µM | COLO 205 20.5 µM | SK-MEL-28 27.6 µM | DU-145 58.6 µM | NCI-H460 17.4 µM | M14 27.7 µM | OVCAR-5 65.3 µM | HOP-92 21.7 µM | SW-620 27.5 µM | UO-31 15.3 µM | TK-10 46.5 µM | LOX IMVI 12.3 µM | MOLT-4 20.2 µM | UACC-62 20.7 µM | ACHN 26.3 µM

COc1ccc(C(=O)OC2C=COC(C)C2OC(=O)c2ccc(OC)cc2)cc1 (stereo not drawn)
inactive: COLO 205 42.8 µM | SK-MEL-28 16.4 µM | NCI-H460 40.7 µM | M14 16.6 µM | OVCAR-5 77.1 µM | HOP-92 17.5 µM | SW-620 15.6 µM | HOP-62 > 83.6 µM | HL-60 10.6 µM | UO-31 45.4 µM | TK-10 52.6 µM | LOX IMVI 14.7 µM | MOLT-4 16.3 µM | NCI-H522 16.5 µM | SR 16.1 µM | UACC-62 18.4 µM | ACHN 42.4 µM

CN(C)CCNC(=O)c1cccc2nc3c(Cl)cccc3nc12
inactive: COLO 205 3.75 µM | SK-MEL-28 4.7 µM | M14 6.24 µM | OVCAR-5 7.93 µM | HOP-92 2.84 µM | SW-620 3.92 µM | HOP-62 5.66 µM | HL-60 6.43 µM | UO-31 8.05 µM | TK-10 4.09 µM | LOX IMVI 3.14 µM | MOLT-4 2.38 µM | NCI-H522 14.3 µM | SR 1.51 µM | UACC-62 2.02 µM | ACHN 3.13 µM

COc1cc2c(cc1O)C(C)Cc1cc3c(cc1N(C)CC2)OCO3 (stereo not drawn)
inactive: COLO 205 24.2 µM | SK-MEL-28 6.22 µM | NCI-H460 3.35 µM | M14 3.22 µM | OVCAR-5 23.1 µM | HOP-92 4.66 µM | SW-620 3.74 µM | HOP-62 10.6 µM | HL-60 4.61 µM | UO-31 6.41 µM | TK-10 27.3 µM | LOX IMVI 5.68 µM | MOLT-4 4.13 µM | NCI-H522 2.18 µM | SR 4.45 µM | UACC-62 3.5 µM | ACHN 6.85 µM

CC(=O)NNc1nc(C)c(C(=O)NNC(=O)C(=O)Nc2ccc(Cl)c([N+](=O)[O-])c2)s1
inactive: COLO 205 > 100 µM | SK-MEL-28 > 100 µM | NCI-H460 > 100 µM | M14 > 100 µM | OVCAR-5 > 100 µM | HOP-92 43.3 µM | SW-620 32.2 µM | HOP-62 > 100 µM | HL-60 39 µM | UO-31 > 100 µM | TK-10 > 100 µM | LOX IMVI 31.3 µM | MOLT-4 20 µM | NCI-H522 26.2 µM | SR 35.1 µM | UACC-62 58.9 µM | ACHN 41.1 µM

COC(=O)[C@@]1(O)CC(C)C=C1C=O (stereo partly drawn)
inactive: COLO 205 > 100 µM | SK-MEL-28 > 100 µM | NCI-H460 20.6 µM | M14 > 100 µM | OVCAR-5 > 100 µM | HOP-92 > 100 µM | SW-620 40.1 µM | HOP-62 > 100 µM | HL-60 22.1 µM | UO-31 > 100 µM | TK-10 > 100 µM | LOX IMVI 53.5 µM | MOLT-4 60.8 µM | NCI-H522 20 µM | SR 55.3 µM | UACC-62 73.6 µM | ACHN > 100 µM

Cc1nc(-[n+]2nc(-c3ccncc3)nn2-c2ccccc2)sc1C
inactive: NCI/ADR-RES 84.5 µM | COLO 205 34.4 µM | SK-MEL-28 34.5 µM | DU-145 36.2 µM | M14 49.3 µM | OVCAR-5 44.6 µM | SW-620 20.2 µM | HOP-62 7.96 µM | HL-60 57.5 µM | UO-31 7.73 µM | TK-10 21.8 µM | LOX IMVI 2.69 µM | MOLT-4 4.72 µM | NCI-H522 3.15 µM | SR > 100 µM | UACC-62 8.36 µM | ACHN 4.8 µM
